Active and inactive are the calls of the source. No cut-off for these calls is given here.
Test system: Staphylococcus aureus
Experiment: Antimicrobial activity against Staphylococcus aureus 4222 with norA KLE 820(3) mutation
Assay type: functional, organism-based

SMILES	Activity
COc1cc2c(cc1O)[C@@H]1Cc3cc(O)c(OC)cc3C(C2)N1C	inactive
COc1cc2c(cc1OC)-c1c(OC)c(OC)cc3c1[C@H](C2)N(C)CC3	inactive
COc1ccc2c(c1O)-c1c(OC)c(OC)cc3c1[C@H](C2)N(C)CC3	inactive
COc1ccc2c(c1OC)-c1c(OC)c(OC)cc3c1[C@H](C2)[N+](C)(C)CC3	inactive
COc1cc2c(cc1OC)C1Cc3cc(OC)c(OC)cc3[C@H](C2)N1C	inactive
COc1ccc(CC2c3cc(OC)c(OC)cc3CCN2C)cc1OC (stereo not given)	inactive
CN1CCc2cc3c(cc2C(=O)Cc2cc4c(cc2C1)OCO4)OCO3	inactive
COc1cc2c(cc1OC)[C@@H]1Cc3ccc(OC)c(OC)c3CN1CC2	inactive
COc1ccc2c(c1OC)CN(C)CCc1cc3c(cc1C(=O)C2)OCO3	inactive

Test system: Staphylococcus aureus
Experiment: Antimicrobial activity against Staphylococcus aureus 4222 with norA KLE mutation at 120 to 140 ug/ml
Assay type: functional, organism-based

SMILES	Activity
COc1ccc2cc3[n+](cc2c1OC)CCc1cc2c(cc1-3)OCO2	Active

From ChEMBL document CHEMBL1155570, “5'-Methoxyhydnocarpin-D and pheophorbide A: Berberis species components that potentiate berberine growth inhibition of resistant Staphylococcus aureus” (J Nat Prod, 2000)
